In ChEMBL document CHEMBL5131397, “Discovery and Optimization of Pyrazole Amides as Inhibitors of ELOVL1” (J Med Chem, 2021):
The source made the active and inactive calls. The rule behind the calls is not given here.

Assays:
[1] = Toxicity in juvenile Sprague-Dawley rat assessed as ocular inflammation at 5 to 75 mg/kg/day, po treatment started from postnatal day 18 to 114 days; format: organism-based; conditions: in vivo, dose lower 5 mg/kg/day, time lower 18 day, dose upper 75 mg/kg/day, time upper 114 day
[2] = Oral bioavailability in Sprague-Dawley rat at 3 mg/kg upto 24 hrs by LC/MS/MS analysis; format: ADME, organism-based; conditions: in vivo
[3] = Volume of distribution at steady state in Beagle dog at 0.5 mg/kg, iv upto 48 hrs by LC/MS/MS analysis; format: ADME, organism-based, Canis lupus familiaris; conditions: in vivo, read-out: Vdss
[4] = Plasma protein binding in rat at 5 uM; format: ADME, cell-free; conditions: read-out: PPB (converted)
[5] = Toxicity in juvenile Sprague-Dawley rat assessed as clonic convulsions 5 to 75 mg/kg/day, po treatment started from postnatal day 75 to 114 days; format: organism-based; conditions: in vivo, dose lower 5 mg/kg/day, time lower 75 day, dose upper 75 mg/kg/day, time upper 114 day
Fibroblast = assay: Reduction in C26:0 lysophosphatidyl choline synthesis in primary human AMN patient-derived fibroblast incubated for 48 hrs; format: functional, cell-based; conditions: DDE = dose-dependent effect
[6] = AUC (infinity) in Cynomolgus monkey at 3 mg/kg, po upto 24 hrs by LC/MS/MS analysis; format: ADME, organism-based, Macaca fascicularis; set-up: dose 3 mg/kg, time < 24 hrs, route po; conditions: in vivo
[7] = Toxicity in Sprague-Dawley rat assessed as corneal keratitis at 5 mg/kg/day, po administered for 8 weeks by macroscopic observation analysis; format: organism-based; conditions: in vivo, 1344 h
[8] = Reduction in C26:0 LPC level in wild-type C57BL/6 mouse blood at 2 to 32 mg/kg, po qd for 105 days by LC-MS/MS analysis relative to control; format: functional; set-up: scale not given: the % may be the effect or the level left; conditions: dose 2-32 mg/kg, time 105 day
[9] = Volume of distribution at steady state in Sprague-Dawley rat at 1 mg/kg, iv upto 48 hrs by LC/MS/MS analysis; format: ADME, organism-based; conditions: in vivo, read-out: Vdss
[10] = Cmax in Sprague-Dawley rat at 3 mg/kg, po upto 24 hrs by LC/MS/MS analysis; format: ADME, organism-based; set-up: dose 3 mg/kg, time < 24 hrs, route po; conditions: in vivo
[11] = Tmax in Cynomolgus monkey at 3 mg/kg, po upto 24 hrs by LC/MS/MS analysis; format: ADME, organism-based, Macaca fascicularis; conditions: in vivo
[12] = molecular target: T1, Very long chain fatty acid elongase 1 (Homo sapiens, UniProt Q9BW60); assay: Inhibition of ELOVL1 in AMN 2 patient-derived fibroblast assessed as reduction of C26:0 VLCFA synthesis incubated for 48 hrs by cellular assay; format: cell-based
T1 sequence (Q9BW60 whole entry): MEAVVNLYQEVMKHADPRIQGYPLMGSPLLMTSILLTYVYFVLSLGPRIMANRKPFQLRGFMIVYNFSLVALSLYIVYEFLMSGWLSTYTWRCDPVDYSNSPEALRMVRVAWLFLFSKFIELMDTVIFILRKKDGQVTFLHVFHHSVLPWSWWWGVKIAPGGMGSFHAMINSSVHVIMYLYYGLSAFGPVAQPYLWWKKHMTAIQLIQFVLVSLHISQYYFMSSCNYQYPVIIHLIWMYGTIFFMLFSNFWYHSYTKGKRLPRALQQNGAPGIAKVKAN

[13] = Oral bioavailability in Beagle dog at 3 mg/kg upto 24 hrs by LC/MS/MS analysis; format: ADME, organism-based, Canis lupus familiaris; conditions: in vivo
[14] = molecular target: T1, Very long chain fatty acid elongase 1; assay: Inhibition of ELOVL1 (unknown origin) using C22-acyl-CoA as substrate by radiometric enzyme assay
[15] = Toxicity in Cynomolgus monkey assessed as adverse skin lesions at 20 to 50 mg/kg/day, po administered for 14 days; format: organism-based, Macaca fascicularis; conditions: in vivo, 336 h, dose 20-50 mg/kg/day, time 14 day
[16] = Clearance in Beagle dog at 0.5 mg/kg, iv upto 48 hrs by LC/MS/MS analysis; format: ADME, organism-based, Canis lupus familiaris; conditions: in vivo
[17] = Reduction in C26:0 LPC level in ABCD1 knock out mouse blood at or above 4 mg/kg, po qd for 105 days by LC-MS/MS analysis relative to control; format: functional; set-up: scale not given: the % may be the effect or the level left; conditions: time 105 day
[18] = Toxicity in Sprague-Dawley rat assessed as ocular hyperplasia at 5 mg/kg/day, po administered for 8 weeks by microscopic observation analysis; format: organism-based; conditions: in vivo, 1344 h
[19] = molecular target: T1, Very long chain fatty acid elongase 1; assay: Inhibition of ELOVL1 in Het […] 1 patient-derived human lymphocyte assessed as reduction of C26:0 VLCFA synthesis incubated for 48 hrs by cellular assay; format: cell-based
[20] = Toxicity in Sprague-Dawley rat assessed as ocular epithelial atrophy at 5 mg/kg/day, po administered for 8 weeks by microscopic observation analysis; format: organism-based; conditions: in vivo, 1344 h
[21] = molecular target: T2, Very long chain fatty acid elongase 1 (Homo sapiens) (UniProt Q9BW60); assay: Inhibition of ELOVL-1 in human HEK2936E cells assessed as reduction in C26:0 lysophosphatidyl choline synthesis at 100 nM in presence of 13C-labeled acetate measured after 48 hrs; format: cell-based
T2 sequence (whole entry): T1 sequence (Q9BW60 whole entry)

[22] = AUC (infinity) in Beagle dog at 3 mg/kg, po upto 24 hrs by LC/MS/MS analysis; format: ADME, organism-based, Canis lupus familiaris; set-up: time < 24 hrs, dose 3 mg/kg, route po; conditions: in vivo
[23] = Toxicity in Sprague-Dawley rat assessed as ulceration at 5 to 50 mg/kg/day, po administered for 2 to 8 weeks; format: organism-based; conditions: in vivo, dose lower 5 mg/kg/day, time lower 2 weeks, dose upper 50 mg/kg/day, time upper 8 weeks
[24] = Reduction of C26:0 /C16:0 LPC level in ABCD1 KO mouse blood at 20 mg/kg, po qd for 8 months by LC-MS/MS analysis relative to control; format: functional; set-up: scale not given: the % may be the effect or the level left; conditions: 5840 h
[25] = Plasma protein binding in dog at 5 uM; format: ADME, cell-free, Canis lupus familiaris; conditions: read-out: PPB (converted)
[26] = molecular target: T2, Very long chain fatty acid elongase 1 (Homo sapiens); assay: Inhibition of ELOVL-1 in human HEK2936E cells assessed as reduction in C24:0 lysophosphatidyl choline synthesis at 100 nM in presence of 13C-labeled acetate measured after 48 hrs; format: cell-based
[27] = Toxicity in juvenile Sprague-Dawley rat assessed as corneal mineralization at 5 to 75 mg/kg/day, po treatment started from postnatal day 18 to 114 days; format: organism-based; conditions: in vivo, dose lower 5 mg/kg/day, time lower 18 day, dose upper 75 mg/kg/day, time upper 114 day
[28] = Toxicity in Sprague-Dawley rat assessed as ocular stromal fibrosis at 5 mg/kg/day, po administered for 8 weeks by microscopic observation analysis; format: organism-based; conditions: in vivo, 1344 h
[29] = molecular target: Rho-associated protein kinase 1 (Homo sapiens) (UniProt Q13464); assay: Inhibition of ROCK 1 (unknown origin) at 10 uM
Chain of Rho-associated protein kinase 1 (Homo sapiens) (Q13464 2-1354 limits assumed): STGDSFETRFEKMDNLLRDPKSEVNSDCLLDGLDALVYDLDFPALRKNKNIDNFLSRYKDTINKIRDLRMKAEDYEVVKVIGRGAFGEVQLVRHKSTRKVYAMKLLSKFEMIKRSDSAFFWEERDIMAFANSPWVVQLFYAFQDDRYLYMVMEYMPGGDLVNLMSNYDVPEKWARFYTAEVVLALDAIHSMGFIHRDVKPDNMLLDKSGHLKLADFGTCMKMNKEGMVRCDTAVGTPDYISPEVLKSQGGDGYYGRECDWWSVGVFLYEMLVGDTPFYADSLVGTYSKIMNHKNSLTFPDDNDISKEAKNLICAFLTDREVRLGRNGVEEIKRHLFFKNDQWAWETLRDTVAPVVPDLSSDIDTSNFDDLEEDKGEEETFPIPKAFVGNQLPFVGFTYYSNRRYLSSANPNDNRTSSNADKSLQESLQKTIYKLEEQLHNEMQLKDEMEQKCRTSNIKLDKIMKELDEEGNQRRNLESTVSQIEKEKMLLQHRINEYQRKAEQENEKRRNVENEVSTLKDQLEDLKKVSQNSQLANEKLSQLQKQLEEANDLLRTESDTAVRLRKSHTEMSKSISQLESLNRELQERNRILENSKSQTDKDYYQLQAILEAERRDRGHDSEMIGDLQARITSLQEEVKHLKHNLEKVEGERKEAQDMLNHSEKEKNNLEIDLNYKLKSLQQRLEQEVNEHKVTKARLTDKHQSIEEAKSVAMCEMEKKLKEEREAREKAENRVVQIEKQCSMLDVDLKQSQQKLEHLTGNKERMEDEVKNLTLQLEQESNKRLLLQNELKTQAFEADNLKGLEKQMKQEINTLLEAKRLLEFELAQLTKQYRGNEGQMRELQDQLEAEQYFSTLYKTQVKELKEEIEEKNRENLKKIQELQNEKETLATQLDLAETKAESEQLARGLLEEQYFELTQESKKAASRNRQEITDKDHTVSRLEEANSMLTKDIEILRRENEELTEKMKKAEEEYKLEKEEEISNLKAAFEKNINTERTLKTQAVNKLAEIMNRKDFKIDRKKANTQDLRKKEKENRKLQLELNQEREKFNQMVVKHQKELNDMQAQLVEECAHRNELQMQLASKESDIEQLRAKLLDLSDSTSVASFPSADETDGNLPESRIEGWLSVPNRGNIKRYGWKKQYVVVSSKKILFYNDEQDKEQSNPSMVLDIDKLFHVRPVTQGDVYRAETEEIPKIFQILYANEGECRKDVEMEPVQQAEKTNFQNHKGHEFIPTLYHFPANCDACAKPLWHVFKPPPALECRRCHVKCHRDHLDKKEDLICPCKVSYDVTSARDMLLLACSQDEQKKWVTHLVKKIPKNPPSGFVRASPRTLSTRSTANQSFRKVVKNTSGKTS

[30] = Toxicity in Cynomolgus monkey assessed as neurological signs of convulsions at 50 mg/kg/day, po administered for 14 days; format: organism-based, Macaca fascicularis; conditions: in vivo, 336 h, time 14 day
[31] = Toxicity in juvenile Sprague-Dawley rat assessed as stomach lesions at 5 to 75 mg/kg/day, po treatment started from postnatal day 18 to 114 days; format: organism-based; conditions: in vivo, dose lower 5 mg/kg/day, time lower 18 day, dose upper 75 mg/kg/day, time upper 114 day
[32] = Reduction in C26:0/C16:0 total VLFCA levels in ABCD1 knock out mouse CNS at 10 mg/kg, po qd measured after 2 months of dosing by LC-MS/MS analysis; format: functional; set-up: scale not given: the % may be the effect or the level left; conditions: 1460 h
[33] = Reduction in C26:0/C16:0 LPC level in ABCD1 knock out mouse CNS at 5 mg/kg, po qd measured after 8 months of dosing by LC-MS/MS analysis; format: functional; set-up: scale not given: the % may be the effect or the level left; conditions: 5840 h
[34] = Toxicity in Cynomolgus monkey assessed as skin lesions at 1 mg/kg/day, po observed from 8 to 13 weeks; format: organism-based, Macaca fascicularis; conditions: in vivo, time 8-13 weeks

Structure (SMILES): O=C(Nc1ccn(-c2ccnc(F)c2)n1)C1(c2ccccc2F)CC1
- Activity [1]: Toxic
- F [2]: 66%
- Vd [3]: 7.5 L/kg
- fraction unbound at 5 µM [4]: 0.071
- Activity [5]: Toxic
- Activity (Fibroblast): Dde
- AUC(0-inf) [6]: 7700 ng·h/mL
- Activity [7]: Toxic
- Activity [8]: 67%
- Vd [9]: 4 L/kg
- Cmax [10]: 174 ng/mL
- Tmax [11]: 2.3 h
- IC50 [12]: 17 nM
- bioavailability [13]: 77%
- IC50 [14]: 900 nM
- Activity [15]: Toxic
- clearance [16]: 30.4 mL/min/kg
- Activity [17]: 85%
- Activity [18]: Toxic
- IC50 [19]: 5 nM
- Activity [20]: Toxic
- inhibition [21]: Active
- AUC(0-inf) [22]: 1250 ng·h/mL
- Activity [23]: Toxic
- Activity [24]: 68%
- fraction unbound at 5 µM [25]: 0.061
- inhibition [26]: Active
- Activity [27]: Toxic
- Activity [28]: Toxic
- inhibition [29]: > 50%
- Activity [30]: Toxic
- Activity [31]: Toxic
- Activity [32]: 50%
- Activity [33]: 65%
- Activity [34]: Non-Toxic
